Values quoted from earlier work, collected in patent US20250195401A1, “COSMETIC COMPOSITION OF LIPOSOMES CONTAINING AN EXTRACT OF HAEMATOCOCCUS PLUVIALIS, TETRAHEXYLDECYL ASCORBATE AND ECTOIN” (IMAGE INTERNATIONAL MANUFACTURING, LLC, priority 2023, published 2025).

Conditions: 6 h at 190° C.

## CC1=N[C@H](C(=O)O)CCN1 [Ectoine, (4S)-2-methyl-1,4,5,6-tetrahydropyrimidine-4-carboxylic acid]
  stability at high temperatures: very stable
